The test system of the series is CCRIS mutagenicity, Ames/micronucleus/aberration tests. The experiment in a line: CCRIS mutagenicity studies. To be noted: Test System: AMES SALMONELLA TYPHIMURIUM
[1] abbreviates: Strain/Indicator: TA98, Metabolic Activation: NONE, Method: PREINCUBATION
[2] abbreviates: Strain/Indicator: TA98, Metabolic Activation: NONE, Method: STANDARD PLATE.
Where [3] appears, read: Strain/Indicator: TA98, Metabolic Activation: RAT, LIVER, S-9, AROCLOR 1254, Method: STANDARD PLATE.
[4] abbreviates: Strain/Indicator: TA100, Metabolic Activation: NONE, Method: STANDARD PLATE.

Activity calls are given as the source filed them. No rule for the calls is given here.

From PubChem BioAssay AID1259407 (Chemical Carcinogenesis Research Information System (CCRIS), 2018) come the findings set out here.

`CC(C)=CCC1=C(O)c2ccccc2C(=O)C1=O`: the mutagenic call (Strain/Indicator: TA97, Metabolic Activation: NONE, Method: PREINCUBATION) was “inactive; negative”; the mutagenic call (Strain/Indicator: TA97, Metabolic Activation: RAT, LIVER, S-9, PHENOBARBITAL AND 5,6-BENZOFLAVONE, Method: PREINCUBATION) is “inactive; negative”; the mutagenic call (Strain/Indicator: TA98, Metabolic Activation: HAMSTER, LIVER, S-9, AROCLOR 1254, Method: STANDARD PLATE) is “inactive; negative”; the mutagenic call under setting [1] was “inactive; negative”; the mutagenic call under setting [2] was “inactive; negative”; the mutagenic call under setting [3] is “inactive; negative”. Moreover, the mutagenic call runs as follows: (Strain/Indicator: TA98, Metabolic Activation: RAT, LIVER, S-9, PHENOBARBITAL AND 5,6-BENZOFLAVONE, Method: PREINCUBATION) “inactive; negative”; (Strain/Indicator: TA100, Metabolic Activation: HAMSTER, LIVER, S-9, AROCLOR 1254, Method: STANDARD PLATE) “inactive; negative”; (Strain/Indicator: TA100, Metabolic Activation: NONE, Method: PREINCUBATION) “inactive; negative”; under setting [4], “inactive; negative”; (Strain/Indicator: TA100, Metabolic Activation: RAT, LIVER, S-9, AROCLOR 1254, Method: STANDARD PLATE) “inactive; negative”; (Strain/Indicator: TA100, Metabolic Activation: RAT, LIVER, S-9, PHENOBARBITAL AND 5,6-BENZOFLAVONE, Method: PREINCUBATION) “inactive; negative”. In addition, the mutagenic call is “inactive; negative” (Strain/Indicator: TA102, Metabolic Activation: NONE, Method: PREINCUBATION); “inactive; negative” (Strain/Indicator: TA102, Metabolic Activation: RAT, LIVER, S-9, PHENOBARBITAL AND 5,6-BENZOFLAVONE, Method: PREINCUBATION); “inactive; negative” (Strain/Indicator: TA104, Metabolic Activation: NONE, Method: PREINCUBATION); “inactive; negative” (Strain/Indicator: TA104, Metabolic Activation: RAT, LIVER, S-9, PHENOBARBITAL AND 5,6-BENZOFLAVONE, Method: PREINCUBATION); “inactive; negative” (Strain/Indicator: TA1535, Metabolic Activation: HAMSTER, LIVER, S-9, AROCLOR 1254, Method: STANDARD PLATE); “inactive; negative” (Strain/Indicator: TA1535, Metabolic Activation: NONE, Method: PREINCUBATION). Also, the mutagenic call by setting is: (Strain/Indicator: TA1535, Metabolic Activation: NONE, Method: STANDARD PLATE) “inactive; negative”; (Strain/Indicator: TA1535, Metabolic Activation: RAT, LIVER, S-9, AROCLOR 1254, Method: STANDARD PLATE) “inactive; negative”; (Strain/Indicator: TA1535, Metabolic Activation: RAT, LIVER, S-9, PHENOBARBITAL AND 5,6-BENZOFLAVONE, Method: PREINCUBATION) “inactive; negative”; (Strain/Indicator: TA1537, Metabolic Activation: HAMSTER, LIVER, S-9, AROCLOR 1254, Method: STANDARD PLATE) “inactive; negative”; (Strain/Indicator: TA1537, Metabolic Activation: NONE, Method: PREINCUBATION) “inactive; negative”; (Strain/Indicator: TA1537, Metabolic Activation: NONE, Method: STANDARD PLATE) “inactive; negative”. Besides, the mutagenic call is, setting by setting: (Strain/Indicator: TA1537, Metabolic Activation: RAT, LIVER, S-9, AROCLOR 1254, Method: STANDARD PLATE) “inactive; negative”; (Strain/Indicator: TA1537, Metabolic Activation: RAT, LIVER, S-9, PHENOBARBITAL AND 5,6-BENZOFLAVONE, Method: PREINCUBATION) “inactive; negative”; (Strain/Indicator: TA1538, Metabolic Activation: HAMSTER, LIVER, S-9, AROCLOR 1254, Method: STANDARD PLATE) “inactive; negative”; (Strain/Indicator: TA1538, Metabolic Activation: NONE, Method: PREINCUBATION) “inactive; negative”; (Strain/Indicator: TA1538, Metabolic Activation: NONE, Method: STANDARD PLATE) “inactive; negative”; (Strain/Indicator: TA1538, Metabolic Activation: RAT, LIVER, S-9, AROCLOR 1254, Method: STANDARD PLATE) “inactive; negative”. In addition, the mutagenic call reads like this: (Strain/Indicator: TA1538, Metabolic Activation: RAT, LIVER, S-9, PHENOBARBITAL AND 5,6-BENZOFLAVONE, Method: PREINCUBATION) “inactive; negative”; (Strain/Indicator: TA2637, Metabolic Activation: NONE, Method: PREINCUBATION) “inactive; negative”; (Strain/Indicator: TA2637, Metabolic Activation: RAT, LIVER, S-9, PHENOBARBITAL AND 5,6-BENZOFLAVONE, Method: PREINCUBATION) “inactive; negative”.

Regarding `c1ccc2c(c1)ccc1[nH]c3ccc4ccccc4c3c12`, the mutagenic call runs as follows: under setting [2], “inactive; negative”; (Strain/Indicator: TA98, Metabolic Activation: RAT, LIVER, S-9, 3-METHYLCHOLANTHRENE, Method: STANDARD PLATE) “inactive; negative”; under setting [3], “inactive; negative”; (Strain/Indicator: TA98, Metabolic Activation: RAT, LIVER, S-9, PHENOBARBITAL, Method: STANDARD PLATE) “inactive; negative”; (Strain/Indicator: TA100, Metabolic Activation: MOUSE, LIVER, S-9, BETA-NAPHTHOFLAVONE, Method: STANDARD PLATE) “inactive; negative”; (Strain/Indicator: TA100, Metabolic Activation: MOUSE, LIVER, S-9, PHENOBARBITAL, Method: STANDARD PLATE) “inactive; negative”. For the same compound, the mutagenic call by setting is: under setting [4], “inactive; negative”; (Strain/Indicator: TA100, Metabolic Activation: RABBIT, LIVER, S-9, BENZO[A]PYRENE, Method: STANDARD PLATE) “inactive; negative”; (Strain/Indicator: TA100, Metabolic Activation: RAT, LIVER, S-9, PHENOBARBITAL, Method: STANDARD PLATE) “inactive; negative”; (Strain/Indicator: TM677, Metabolic Activation: NONE, Method: PREINCUBATION) “inactive; negative”; (Strain/Indicator: TM677, Metabolic Activation: RAT, LIVER, S-9, 3-METHYLCHOLANTHRENE (1%), Method: PREINCUBATION) “active; positive”; (Strain/Indicator: TM677, Metabolic Activation: RAT, LIVER, S-9, 3-METHYLCHOLANTHRENE (10%), Method: PREINCUBATION) “inactive; negative”.

For the compound `O=S(=O)(O)C1C(O)c2c(cc3ccc4cccc5ccc2c3c45)C(O)C1O` (stereo unspecified), the mutagenic call under setting [1] was “inactive; negative”.
